Assay results published in US20090280110A1, “Cell Model for Alzheimer's Disease Pathology” (UNIVERSITY OF VIRGINIA PATENT FOUNDATION, priority 2006, published 2009).
“Also recorded” adds a separate entry of the source.

Columns and labels:
tau = experiment: Western blotting with phosphorylation-sensitive anti-tau antibodies (PHF-1, AT180, tau-1); type: cell-based; details: primary rat hippocampal neurons, 1 μM, 2 hours
Description: Antibodies: Tau-5, Tau-1, and R1 tau were generous gifts of Dr. Lester Binder, and PHF-1 was kindly provided by Dr. Peter Davies. AT180 (Pierce Endogen), DM1α (Sigma Chemical), Actin C4 (Chemicon), fluorescently tagged goat anti-mouse IgG and goat anti-rabbit (Southern Biotech), and HRP-labeled goat anti-mouse IgG (KPL) were acquired from the indicated commercial sources.

CV-1 cell microtubules = experiment: Time lapse fluorescence microscopy of microtubules in transfected CV-1 cells treated with Aβ; type: cell-based, African green monkey
Description: (§1) Cell Culture: CV-1 (African green monkey kidney) cells were cultured in DMEM (Dulbecco's modified Eagle's Medium; GIBCO) supplemented with 10% Cosmic Calf Serum (Hyclone) and 50 μg/ml gentamycin. Cells were transiently transfected using Fugene (Roche) with cDNAs for the longest human isoform of tau, or the projection domain (amino acids 1-248) of tau linked at their C-terminals to eCFP or eYFP (Clontech); with YFP-α-tubulin (Clontech); or with GFP-MAP2c or GFP-MAP2c/tau chimeras (Roger et al., 2004), which were generous gifts of Dr. Shelley Halpain. Primary cortical neurons were purchased from Genlantis and cultured according to their guidelines. Primary hippocampal neurons (Wisco et al., 2003) were grown for at least 8 days prior to Aβ treatment. The tau siRNA (Darmacon SMARTpool) and control scrambled siRNA (Darmacon non-specific duplex II) were transfected into primary hippocampal neurons using the rat neuron Nucleofection system (Amaxa) and program G-13 (Qiang et al., 2006). Cells were cultured for 4 days after Nucleofection, and then were exposed to Aβ.
Aβ treatment: Previously described methods were used to synthesize (Burdick et al., 1992) and resuspend (Kayed et al., 2003) Aβ42 and Aβ40. The Aβ was added to cells cultured in serum-free DMEM to final concentrations from 0.1-5 μM. Pre-fibrillar Aβ was used in the first and second days following resuspension, while fibrillar Aβ was used following at least 7 days of stirring.
Microscopy: Confocal live cell imaging and immunofluorescence microscopy were performed on a Zeiss Axiovert 100 using Openlab 4.0 (Improvision) software, as previously described (Mateer et al., 2002). For electron microscopy, primary cortical and hippocampal neurons were grown on glass coverslips, treated with Aβ42, and fixed in 2.5% glutaraldehyde+0.5% tannic acid in 0.1 M cacodylate buffer pH 7.4. Cells on coverslips were dehydrated and capsule embedded in EPON, and the glass coverslip was removed from the EPON by alternating liquid nitrogen and warm water submersion of the capsule. Sectioned samples were viewed on a JEOL JEM 1010 electron microscope at 80 kV and images captured using a SA1-12c 16 megapixel cooled CCD (Scientific Instruments and Applications, Inc).

[1] = test system: microtubules in primary hippocampal neurons; experiment: Triton X-100 extraction partitioning soluble and polymerized tubulin, immunoblotting; type: cell-based, rat; details: 2 hours
Description: Microtubule Extraction/Blotting: Primary hippocampal neurons were treated with 1-3 μM pre-fibrillar or fibrillar Aβ42. Cells were washed with PBS, and extracted with Triton X-100 in a microtubule stabilizing buffer (Black et al., 1996). Briefly, cells were incubated with PHEM buffer (60 mM PIPES pH 6.9, 25 mM HEPES, 10 mM EGTA, 2 mM MgCl2) with 10 μM taxol, and 0.2% Triton X-100 for 5 minutes. The buffer was collected and centrifuged for 5 minutes at maximum speed in an Eppendorf model 5415 table top centrifuge, and the supernatant removed and added to sample buffer. An equivalent volume of PHEM buffer and sample buffer was added to the dish, and this sample was added to the pellet from the spin. Equal volumes of supernatants and pellets, which respectively contained soluble and polymerized tubulin (Black et al., 1996), were then analyzed by immunoblotting with DM1α monoclonal anti-α-tubulin (Sigma) and monoclonal tau-5. DM1α (Blose et al., 1984) and tau-5 (Loomis et al., 1990) recognize all isoforms or α-tubulin and tau, respectively, independently of post-translational modifications. Quantitation of scanned immunoreactive α-tubulin bands was performed using the public domain image processing software, Image J at the NIH website.

[2] = test system: primary rat cortical neurons; experiment: Immunofluorescence and electron microscopy of neurons treated with Aβ42; type: cell-based; details: 1 μM
Description: as §1
Microscopy: Confocal live cell imaging and immunofluorescence microscopy were performed on a Zeiss Axiovert 100 using Openlab 4.0 (Improvision) software, as previously described (Mateer et al., 2002). […]

Row | Substance | AD-like tau phosphorylation (tau) | time after addition until tau dissociated from microtubules (CV-1 cell microtubules; CV-1 cells co-expressing tau-CFP and YFP-tubulin, 0.1-3 μM) [h] | concentration added to culture media at which tau dissociated from microtubules, which completely disassembled soon thereafter (CV-1 cell microtubules; CV-1 cells co-expressing tau-CFP and YFP-tubulin, within 1-2 hours) [µM] | microtubule integrity in cells without tau (CV-1 cell microtubules; CV-1 cells expressing YFP-tubulin but not tau-CFP, as much as 3 μM, more than two hours) | effect on tau and microtubules in tau-expressing cells (CV-1 cell microtubules; CV-1 cells with tau-CFP and YFP-tubulin, 1 μM, 0-120 minutes (FIG. 1a)) | microtubules in cells expressing the N-terminal arm (projection domain) of tau coupled to CFP (CV-1 cell microtubules; CV-1 cells, 1 μM) | microtubules in cells expressing GFP-tau chimera (CV-1 cell microtubules; CV-1 cells, 1 μM, less than an hour) | microtubules in cells expressing GFP-MAP2c chimera (CV-1 cell microtubules; CV-1 cells, 1 μM, more than 2 hours) | microtubule integrity in cells expressing GFP-MAP2c (CV-1 cell microtubules; CV-1 cells, 1 μM, over 2 hours) | change in tubulin levels in response to Aβ42 in tau siRNA-treated cells ([1]; primary neurons with tau siRNA, 2 μM, compared to tau expressing cells) | neurite morphology by immunofluorescence ([2]; 30 minutes) | neurite microtubules by electron microscopy ([2]; 2 hours) | microtubule integrity in tau-expressing cells (CV-1 cell microtubules; CV-1 cells expressing tau-CFP, as much as 5 μM, more than two hours) | microtubules in tau-expressing cells (CV-1 cell microtubules; tau-expressing CV-1 cells, 3 μM, 0-140 minutes (FIG. 1c)) | tubulin polymerized ([1]; primary hippocampal neurons, 3 μM, about 90% in cells not exposed) [%]
1 | pre-fibrillar Aβ42: synthesized Aβ42 peptide used in the first and second days following resuspension; monomers to oligomers | did not cause increased AD-like tau phosphorylation | 1 to 2 | 0.1 to 3 | remained intact | caused tau to dissociate from microtubules, and the microtubules to disassemble soon thereafter | depolymerized | depolymerized | remained intact | did not cause any apparent loss of microtubule integrity; also recorded: remained intact | no change | swollen varicosities | fewer, less organized microtubules; also recorded: numerous varicosities that were filled with membrane-bound organelles and lacked microtubules |  |  | 
2 | fibrillar Aβ42: synthesized Aβ42 peptide used following at least 7 days of stirring |  |  |  |  |  |  |  |  |  |  |  |  | unaffected | unaffected | 65
